According to patent publication US8912120B2, “Herbicidal compositions comprising 4-amino-3-chloro-5-fluoro-6-(4-chloro-2-fluoro-3-methoxyphenyl) pyridine-2-carboxylic acid or a derivative thereof and synthetic auxin herbicides” (Dow AgroSciences, LLC., priority 2012, dated 2014):
Counter-ions that a name gives are not always drawn.

How the values were obtained:
[1] = test system: CYPRO; assay: Example II: in-water applied herbicidal mixtures, weed control in transplanted paddy rice (greenhouse), CYPRO; type: in vivo, Cyperus rotundus (purple nutsedge); conditions: for Visual Weed Control (%) Obs: 22 DAA
Experimental: (§1) The prepared mud was dispensed in 365 mL aliquots into 16-ounce (oz.) non-perforated plastic pots with a surface area of 86.59 square centimeters (cm^2) leaving a headspace of 3 centimeters (cm) in each pot Mud was allowed to dry overnight prior to planting or transplanting. Rice seeds were planted in Sun Gro MetroMix® 306 planting mixture, which typically has a pH of 6.0 to 6.8 and an organic matter content of about 30 percent, in plastic plug trays. Seedlings at the second or third leaf stage of growth were transplanted into 840 mL of mud contained in 32-oz. non-perforated plastic pots with a surface area of 86.59 cm^2 4 days prior to herbicide application. […] Nutrients were added as Osmocote® (19:6:12, N:P:K^+ minor nutrients) at 2 g per 16-oz. pot and 4 g per 32-oz. pot.
(§2) Applications were made by injecting with a pipetter appropriate amounts of the application solutions, individually and sequentially, into the aqueous layer of the paddy. Control plants were treated in the same manner with the solvent blank. Applications were made so that all treated plant material received the same concentrations of acetone and crop oil concentrate.

[2] = test system: ECHCG; assay: Example II: in-water applied herbicidal mixtures, transplanted paddy rice, ECHCG; type: in vivo, Echinochloa crus-galli (barnyardgrass); conditions: for Visual Weed Control (%) - 21 DAA ECHCG Obs: in-water application; for Visual Weed Control (%) Obs: 22 DAA
Experimental: as §1, §2

[3] = test system: ECHOR; assay: Example II: in-water applied herbicidal mixtures, transplanted paddy rice, ECHOR; type: in vivo, Echinochloa oryzoides (early watergrass)
Experimental: as §1, §2

[4] = test system: LEFCH; assay: Example II: in-water applied herbicidal mixtures, transplanted paddy rice, LEFCH; type: in vivo, Leptochloa chinensis (Chinese sprangletop); conditions: for Visual Weed Control (%) - 21 DAA LEFCH Obs: in-water application; for Visual Weed Control (%) Obs: 22 DAA
Experimental: as §1, §2

[5] = test system: SCPJU; assay: Example II: in-water applied herbicidal mixtures, transplanted paddy rice, SCPJU; type: in vivo, Schoenoplectus juncoides (Japanese bulrush); conditions: for Visual Weed Control (%) - 21 DAA SCPJU Obs: in-water application; for Visual Weed Control (%) Obs: 22 DAA
Experimental: as §1, §2

[6] = test system: ELEIN; assay: Example III: postemergence foliar-applied herbicidal mixtures, weeds common to row crops such as corn and soybeans (greenhouse), ELEIN; type: in vivo, Eleusine indica (goosegrass); conditions: 14 DAA
Experimental: (§3) The plants were grown for 7-31 days (d) in a greenhouse with an approximate 15 hour (h) photoperiod which was maintained at about 23-29° C. during the day and 22-28° C. during the night.

[7] = test system: PANDI; assay: Example III: postemergence foliar-applied herbicidal mixtures, row crop weeds, PANDI; type: in vivo, Panicum dichotomiflorum (fall panicum); conditions: 16 DAA
Experimental: as §3

[8] = test system: PANMI; assay: Example III: postemergence foliar-applied herbicidal mixtures, row crop weeds, PANMI; type: in vivo, Panicum miliaceum (wild-proso millet); conditions: 16 DAA
Experimental: as §3

[9] = test system: CENMA; assay: Example V: postemergence herbicidal activity of mixtures in forage crops, CENMA; type: in vivo, Centaurea maculosa (spotted knapweed); conditions: alone, foliar, approximately 21 days
Experimental: (§4) Seeds or root cuttings of the desired test plant species were planted in Sun Gro MetroMix® 306 planting mixture, which typically has a pH of 6.0 to 6.8 and an organic matter content of about 30 percent, in plastic pots with a surface area of 126.6 square centimeters (cm^2). […] The plants were grown for 14-60 days in a greenhouse with an approximate 14 hour photoperiod which was maintained at approximately 28° C. during the day and 24° C. during the night.
(§5) Spray solutions of the second herbicide or experimental compound mixtures were prepared by adding the stock solutions to the appropriate amount of dilution solution to form 12 mL spray solution with active ingredients in two-way combinations.

[10] = test system: SINAR; assay: Example V: postemergence herbicidal activity of mixtures in forage crops, SINAR; type: in vivo, Sinapis arvensis (wild mustard); conditions: alone, foliar, approximately 21 days
Experimental: as §4, §5

[11] = test system: SONAR; assay: Example V: postemergence herbicidal activity of mixtures in forage crops, SONAR; type: in vivo, Sonchus arvensis (field sowthistle); conditions: alone, foliar, approximately 21 days
Experimental: as §4, §5

[12] = test system: BRSNN; assay: Example IV: postemergence foliar-applied herbicidal mixtures, cereal crops, BRSNN; type: in vivo, Brassica napus (volunteer canola); conditions: alone, 3 gai/ha, foliar, 20-22 days
Experimental: as §4, with “Seeds” for “Seeds or root cuttings”, “MetroMix” for “MetroMix®”, “103.2” for “126.6”, “7-36” for “14-60”, “about 18°” for “approximately 28°”, “17°” for “24°”
(§6) Spray solutions of the second cereal herbicide and experimental compound mixtures were prepared by adding the stock solutions to the appropriate amount of dilution solution to form 12 mL spray solution with active ingredients in two- and three-way combinations.

[13] = test system: CIRAR; assay: Example IV: postemergence foliar-applied herbicidal mixtures, cereal crops, CIRAR; type: in vivo, Cirsium arvense (Canada thistle); conditions: alone, 20-22 days
Experimental: as §4, with “Seeds” for “Seeds or root cuttings”, “MetroMix” for “MetroMix®”, “103.2” for “126.6”, “7-36” for “14-60”, “about 18°” for “approximately 28°”, “17°” for “24°”
as §6

[14] = test system: POLCO; assay: Example IV: postemergence foliar-applied herbicidal mixtures, cereal crops, POLCO; type: in vivo, Polygonum convolvulus (wild buckwheat); conditions: alone, foliar, 20-22 days
Experimental: as §4, with “Seeds” for “Seeds or root cuttings”, “MetroMix” for “MetroMix®”, “103.2” for “126.6”, “7-36” for “14-60”, “about 18°” for “approximately 28°”, “17°” for “24°”
as §6

[15] = test system: AMARE; assay: Example IV: postemergence foliar-applied herbicidal mixtures, weed control in cereal crops in the greenhouse, AMARE; type: in vivo, Amaranthus retroflexus (redroot pigweed); conditions: alone, 35 gai/ha, 20-22 days
Experimental: as §4, with “Seeds” for “Seeds or root cuttings”, “MetroMix” for “MetroMix®”, “103.2” for “126.6”, “7-36” for “14-60”, “about 18°” for “approximately 28°”, “17°” for “24°”
as §6

[16] = test system: VIOTR; assay: Example IV: postemergence foliar-applied herbicidal mixtures, cereal crops, VIOTR; type: in vivo, Viola tricolor (wild pansy); conditions: alone, foliar, 20-22 days
Experimental: as §4, with “Seeds” for “Seeds or root cuttings”, “MetroMix” for “MetroMix®”, “103.2” for “126.6”, “7-36” for “14-60”, “about 18°” for “approximately 28°”, “17°” for “24°”
as §6

[17] = test system: STEME; assay: Example IV: postemergence foliar-applied herbicidal mixtures, cereal crops, STEME; type: in vivo, Stellaria media (common chickweed); conditions: alone, 10 gai/ha, 20-22 days
Experimental: as §4, with “Seeds” for “Seeds or root cuttings”, “MetroMix” for “MetroMix®”, “103.2” for “126.6”, “7-36” for “14-60”, “about 18°” for “approximately 28°”, “17°” for “24°”
as §6

[18] = test system: FIMMI; assay: Example II: in-water applied herbicidal mixtures, transplanted paddy rice, FIMMI; type: in vivo, Fimbristylis miliacea (globe fringerush); conditions: 22 DAA
Experimental: as §1, §2

[19] = 280 gae/ha, in-water application

Compound: O=C(O)COc1ccc(Cl)cc1Cl [2,4-D DMA Salt, 2-(2,4-dichlorophenoxy)acetic acid with N-methylmethanamine, reference compound]
- Visual Weed Control (%) - 21 DAA CYPRO Obs [1, 19]: 0%
- Visual Weed Control (%) - 21 DAA ECHCG Obs ([2]; 140 gae/ha): 0%
- Visual Weed Control (%) - 21 DAA ECHCG Obs ([2]; 280 gae/ha): 0%
- Visual Weed Control (%) - 21 DAA ECHOR Obs [3, 19]: 15%
- Visual Weed Control (%) - 21 DAA LEFCH Obs ([4]; 140 gae/ha): 0%
- Visual Weed Control (%) - 21 DAA LEFCH Obs ([4]; 280 gae/ha): 60%
- Visual Weed Control (%) - 21 DAA SCPJU Obs ([5]; 140 gae/ha): 0%
- Visual Weed Control (%) - 21 DAA SCPJU Obs ([5]; 280 gae/ha): 0%
- Visual Weed Control (%) Obs ([6]; 52.5 gae/ha): 0%
- Visual Weed Control (%) Obs ([6]; 105 gae/ha): 0%
- Visual Weed Control (%) Obs ([7]; 105 gae/ha): 0%
- Visual Weed Control (%) Obs ([7]; 210 gae/ha): 0%
- Visual Weed Control (%) Obs ([8]; 52.5 gae/ha): 0%
- Visual Weed Control (%) Obs ([8]; 105 gae/ha): 10%
- CENMA Obs (observed value) ([9]; 35 gae/ha): 30%
- CENMA Obs (observed value) ([9]; 70 gae/ha): 50%
- SINAR Obs (observed value) ([10]; 35 gae/ha): 35%
- SINAR Obs (observed value) ([10]; 70 gae/ha): 80%
- SONAR Obs (observed value) ([11]; 35 gae/ha): 20%
- SONAR Obs (observed value) ([11]; 70 gae/ha): 85%

Compound: Nc1cc(Cl)nc(C(=O)O)c1Cl [Aminopyralid, 4-amino-3,6-dichloro-2-pyridinecarboxylic acid]
- BRSNN Ob (observed value) [12]: 0%
- CIRAR Ob (observed value) ([13]; 3 gai/ha): 13%
- POLCO Ob (observed value) ([14]; 3 gai/ha): 3%

Compound: Nc1c(Cl)c(F)nc(OCC(=O)O)c1Cl [Fluroxypyr, 2-[(4-amino-3,5-dichloro-6-fluoro-2-pyridinyl)oxy]acetic acid]
- AMARE Ob (observed value) [15]: 33%
- CIRAR Ob (observed value) ([13]; 35 gai/ha): 3%
- POLCO Ob (observed value) ([14]; 35 gai/ha): 23%
- VIOTR Ob (observed value) ([16]; 35 gai/ha): 10%

Compound: Nc1c(Cl)c(Cl)nc(C(=O)O)c1Cl [Picloram, 4-amino-3,5,6-trichloro-2-pyridinecarboxylic acid]
- POLCO Ob (observed value) ([14]; 10 gai/ha): 40%
- STEME Ob (observed value) [17]: 0%
- VIOTR Ob (observed value) ([16]; 10 gai/ha): 3%

Compound: O=C(O)COc1nc(Cl)c(Cl)cc1Cl [Triclopyr Choline Salt, 2-hydroxy-N,N,N-trimethylethanaminium 2-((3,5,6-trichloropyridin-2-yl)oxy)acetate, reference compound]
- Visual Weed Control (%) Obs ([1]; 70 gae/ha): 0%
- Visual Weed Control (%) Obs ([1]; 140 gae/ha): 0%
- Visual Weed Control (%) Obs ([2]; 70 gae/ha): 15%
- Visual Weed Control (%) Obs ([2]; 140 gae/ha): 20%
- pest or weed control at 70 g/ha ([3]; Echinochloa oryzoides, 528 h, 22 DAA, 70 gae/ha, read-out: Visual Weed Control (%) Obs): 10%
- pest or weed control at 140 g/ha ([3]; Echinochloa oryzoides, 528 h, 22 DAA, 140 gae/ha, read-out: Visual Weed Control (%) Obs): 15%
- Visual Weed Control (%) Obs ([18]; 70 gae/ha): 15%
- Visual Weed Control (%) Obs ([18]; 140 gae/ha): 80%
- Visual Weed Control (%) Obs ([4]; 70 gae/ha): 0%
- Visual Weed Control (%) Obs ([4]; 140 gae/ha): 0%
- Visual Weed Control (%) Obs ([5]; 70 gae/ha): 15%
- Visual Weed Control (%) Obs ([5]; 140 gae/ha): 50%
